Results published in US20240374631A1, “A COMPOSITION FOR IMPROVING GUT MICROBIOTA, BEHAVIOURAL PATTERN, ALPHA-SYNUCLEIN LEVELS, SLEEP PATTERN AND/OR SERUM MELATONIN” (GN Corporation Co Ltd, priority 2021, published 2024).

System: gut microbiota
Assay: Gut microbiome analysis (16S rRNA sequencing of fecal samples) in STAM model of NASH
Assay type: in vivo, C57BL/6J mice
Conditions: pre (baseline)
Text: The study is reported in accordance with Animal Research: Reporting of In Vivo Experiments (ARRIVE) guidelines. C57BL/6J mice were obtained from Japan SLC, Inc. (Japan). All animals used in this study were cared for under the following guidelines: Act on Welfare and Management of Animals (Ministry of the Environment, Japan, Act No. 105 of Oct. 1, 1973), standards relating to the care and management of laboratory animals and relief of pain (Notice No. 88 of the Ministry of the Environment, Japan, Apr. 28, 2006) and the guidelines for proper conduct of animal experiments (Science Council of Japan, Jun. 1, 2006). Protocol approvals were obtained from SMC Laboratories, Japan's IACUC (Study reference no: […] Mice were maintained in a specific pathogen-free (SPF) facility under controlled conditions of temperature (23±3° C.), humidity (50±20%), lighting (12-hour artificial light and dark cycles; light from 8:00 to 20:00) and air exchange. The STAM model of NASH was induced as previously described [D10]. Mice were given a single subcutaneous injection of 200 μg streptozotocin (STZ, Sigma-Aldrich, USA) solution 2 days after birth and fed with a high-fat diet (HFD, 57 kcal % fat, Cat #HFD32, CLEA Japan, Inc., Japan) from 4-9 weeks of age. All mice develop liver steatosis and diabetes and at […] mice had established steatohepatitis, histologically. Studygroups: There were five study groups, described below. Eight mice were included in each study group. Eight NASH mice were orally administered vehicle supplemented with AFO-202 Beta Glucan at a dose of 1 mg/kg in a volume of 5 mL/kg once daily from 6 to 9 weeks of age. Eight NASH mice were orally administered vehicle supplemented with Telmisartan at a dose of 10 mg/kg once daily from 6 to 9 weeks of age. Frequency: Fecal samples were collected at the 6 weeks of age (before administration) and 9 weeks of age (before sacrifice). Procedure: At 6 weeks of age, fecal samples were collected from each mouse by clean catch method. […] A sterile petri dish was placed on the bench. Gently massage the abdomen, position the bottom of mouse over a fresh petri dish, and collect 1-2 fecal pellets. At sacrifice, fecal samples were aseptically collected from cecum. The tubes with feces were placed on ice immediately. These tubes were snap frozen in liquid nitrogen and stored at -80° C. for shipping. In this analysis, the 16S rRNA sequence data acquired by the next-generation sequencer from the fecal […] was used to perform community analysis using the QIIME2 program for microbial community analysis. The raw read data in FASTQ format output from the next-generation sequencer was trimmed to remove adapter sequences and low QV regions that may be included in the data. Cutadapt was used to remove adapter sequences from DNA sequencing reads. Trimmomatic was used as read trimming tool for Illumina NGS data. The adapter sequence was trimmed using the adapter trimming program “cutadapt” if the Trimming of the region at the end of the read sequence overlapped the corresponding sequence by at least one base (mismatch tolerance: 20%). When reads containing N were present in at least one of Read1 and Read2, both Read1 and Read2 were removed. Trimming of low QV regions was performed on the read data after processing using the QV trimming program “Trimmomatic” under the following conditions. The window of 20 bases is slid from the 5' side, and the area where the average QV is less than 20 is trimmed. After trimming, only the reads with more than 50 bases remaining in both Read1 and Read2 were taken as output. The microbial community analysis based on 16S rRNA sequence was performed on the sequence data trimmed in the previous section using the microbial community analysis program “QIIME2”. The annotation program “sklearn” included in QIIME2 is used to annotate the ASV (OTU) sequences. […]

In the case of `CCCc1nc2c(C)cc(-c3nc4ccccc4n3C)cc2n1Cc1ccc(-c2ccccc2C(=O)O)cc1` [Telmisartan], the “Abundance: Ruminococcaceae, Oscillospira, —” value (“Abundance … Oscillospira, —” below) (line r193) is reported as 57, the “Abundance: Lactobacillaceae, Lactobaccilus, reuteri” value (line r194) is reported as 0 and the “Abundance: Coriobacteriaceae, Adlercreutzia, —” value (line r195) is reported as 58. For the same compound, the “Abundance: Lachnospiraceae, —, —” value (line r196) was 0, the “Abundance: S24-7, —, —” value (line r197) was 64 and the “Abundance: Turicibacteraceae, Turicibacter, —” value (line r198) was 0. The “Abundance: S24-7, —, —” value (line r199) was 45, the “Abundance: Rikenellaceae, —, —” value (line r200) was 25 and the “Abundance: Enterobacteriaceae, Other, Other” value (line r201) was 0. The “Abundance: Rikenellaceae, Other, Other” value (line r202) was 47, the “Abundance: Lactobacillaceae, Lactobaccilus, Other” value (line r204) was 0 and the “Abundance: —, —, —” value (line r205) was 60. For the same compound, the “Abundance: S24-7, —, —” value (line r206) was 27, the “Abundance: S24-7, —, —” value (line r207) was 35 and the “Abundance: —, —, —” value (line r208) was 85. The “Abundance: Enterobacteriaceae, Klebsiella, Other” value (line r209) was 0, the “Abundance: —, —, —” value (line r210) was 63 and the “Abundance: Lachnospiraceae, Other, Other” value (line r211) was 48. For the same compound, the “Abundance … Oscillospira, —” value (line r212) was 0, the “Abundance … Oscillospira, —” value (line r213) was 71 and the “Abundance: Bacteroidaceae, Bacteroides, acidifaciens” value (line r214) was 27. For the same compound, the “Abundance: Erysipelotrichaceae, —, —” value (line r215) was 51, the “Abundance: Lachnospiraceae, Dorea, —” value (line r216) was 98 and the “Abundance: Enterobacteriaceae, Enterobacter, Other” value (line r217) was 0. The “Abundance … Oscillospira, —” value (line r218) was 42, the “Abundance: Ruminococcaceae, Other, Other” value (line r219) was 61 and the “Abundance … Oscillospira, —” value (line r220) was 0. The “Abundance: Rikenellaceae, —, —” value (line r221) was 31, the “Abundance: Lachnospiraceae, Other, Other” value (line r223) was 98 and the “Abundance: Other, Other, Other” value (line r224) was 18. For the same compound, the “Abundance … Oscillospira, —” value (line r225) was 79, the “Abundance: S24-7, —, —” value (line r226) was 38 and the “Abundance: Lachnospiraceae, —, —” value (line r227) was 3. For the same compound, the “Abundance: Streptococcaceae, Staphylococcus, —” value (line r228) was 0, the “Abundance: —, —, —” value (line r229) was 96 and the “Abundance: —, —, —” value (line r230) was 87. The “Abundance: —, —, —” value (line r231) was 0, the “Abundance: Other, Other, Other” value (line r232) was 10 and the “Abundance: Aerococcaceae, Aerococcus, —” value (line r233) was 0. For the same compound, the “Abundance: Ruminococcaceae, —, —” value (line r234) was 0, the “Abundance: —, —, —” value (line r235) was 61 and the “Abundance: Streptococcaceae, Staphylococcus, —” value (line r236) was 0. For the same compound, the “Abundance … Oscillospira, —” value (line r237) was 0, the “Abundance: —, —, —” value (line r238) was 0 and the “Abundance: Ruminococcaceae, Ruminococcus, —” value (shortened to “Abundance … Ruminococcus, —”) (line r239) was 0. For the same compound, the “Abundance: —, —, —” value (line r240) was 6, the “Abundance: Other, Other, Other” value (line r241) was 0 and the “Abundance … Oscillospira, —” value (line r242) was 30. For the same compound, the “Abundance: Lachnospiraceae, [Ruminococcus], gnavus” value (line r243) was 27, the “Abundance: Lachnospiraceae, —, —” value (line r244) was 0 and the “Abundance: Other, Other, Other” value (line r245) was 0. The “Abundance … Oscillospira, —” value (line r246) was 37, the “Abundance: —, —, —” value (line r247) was 69 and the “Abundance: Other, Other, Other” value (line r248) was 0. For the same compound, the “Abundance: Other, Other, Other” value (line r249) was 0, the “Abundance: Other, Other, Other” value (line r250) was 68 and the “Abundance: Lachnospiraceae, Clostridium, Other” value (line r251) was 0. For the same compound, the “Abundance: Lachnospiraceae, —, —” value (line r252) was 0, the “Abundance: Other, Other, Other” value (line r253) was 13 and the “Abundance: Other, Other, Other” value (line r254) was 23. The “Abundance … Oscillospira, —” value (line r255) was 25, the “Abundance: Desulfovibrionaceae, —, —” value (line r256) was 23 and the “Abundance: Dehalobacteriaceae, Dehalobacterium, —” value (line r257) was 24. The “Abundance … Ruminococcus, —” value (line r259) was 44, the “Abundance: Lachnospiraceae, Coprococcus, —” value (“Abundance … Coprococcus, —” for short) (line r260) was 23 and the “Abundance … Oscillospira, —” value (line r261) was 0. The “Abundance: Other, Other, Other” value (line r262) was 0, the “Abundance … Coprococcus, —” value (line r263) was 34 and the “Abundance … Oscillospira, —” value (line r264) was 87. For the same compound, the “Abundance: Christensenellaceae, —, —” value (line r265) was 37, the “Abundance: S24-7, —, —” value (line r266) was 44 and the “Abundance … Oscillospira, —” value (line r267) was 95. For the same compound, the “Abundance … Coprococcus, —” value (line r268) was 11, the “Abundance: Lachnospiraceae, Other, Other” value (line r269) was 0 and the “Abundance: Erysipelotrichaceae, Clostridium, cocleatum” value (line r271) was 16. The “Abundance: —, —, —” value (line r272) was 92, the “Abundance: Desulfovibrionaceae, Bilophila, —” value (line r273) was 11 and the “Abundance: —, —, —” value (line r274) was 107. For the same compound, the “Abundance: Corynebacteriaceae, Corynebacterium, stationis” value (line r275) was 0, the “Abundance: Lachnospiraceae, Other, Other” value (line r276) was 0 and the “Abundance: Lachnospiraceae, Other, Other” value (line r277) was 0. For the same compound, the “Abundance: Lachnospiraceae, —, —” value (line r278) was 14, the “Abundance: Lachnospiraceae, —, —” value (line r279) was 31 and the “Abundance: —, —, —” value (line r280) was 108. The “Abundance: —, —, —” value (line r281) was 0, the “Abundance: —, —, —” value (line r282) was 0 and the “Abundance: Ruminococcaceae, —, —” value (line r283) was 27. For the same compound, the “Abundance: —, —, —” value (line r284) was 96, the “Abundance: Lachnospiraceae, —, —” value (line r285) was 90 and the “Abundance: Dehalobacteriaceae, Dehalobacterium, —” value (line r286) was 3. The “Abundance: Other, Other, Other” value (line r287) was 0, the “Abundance: Streptococcaceae, Streptococcus, luteciae” value (line r288) was 12 and the “Abundance: —, —, —” value (line r289) was 0. For the same compound, the “Abundance: S24-7, —, —” value (line r290) was 0, the “Abundance … Ruminococcus, —” value (line r292) was 10 and the “Abundance: Lachnospiraceae, Clostridium, Other” value (line r293) was 26. For the same compound, the “Abundance: —, —, —” value (line r294) was 10, the “Abundance … Oscillospira, —” value (line r295) was 11 and the “Abundance … Coprococcus, —” value (line r296) was 20. For the same compound, the “Abundance: —, —, —” value (line r297) was 12, the “Abundance: S24-7, —, —” value (line r298) was 0 and the “Abundance: Lachnospiraceae, —, —” value (line r300) was 0. The “Abundance … Oscillospira, —” value (line r301) was 54.
